# From patent US20100184037A1, “DEATH ASSOCIATED PROTEIN KINASE 1 (DAPK1) AND USES THEREOF FOR THE TREATMENT OF CHRONIC LYMPOCYTIC LEUKEMIA” (THE OHIO STATE UNIVERSITY RESEARCH FOUNDATION, priority 2007, published 2010)
# Assays:
# DAPK1 = assay: Decitabine treatment of Raji cells, RT-PCR for DAPK1; assay type: cell-based; details: for 3, 6, 9, and 12 days
# From the text: Next we treated Raji cells with 0.51.LM Decitabine for 3, 6, 9, and 12 days.
# Blood was obtained from patients with B-cell CLL through the CLL Research Consortium (CRC), from the Ohio State University and Uppsala University tissue banks. CLL patients from OSU and CRC consortium and healthy volunteers provided written informed consent using Institutional Review Board-approved protocols. Written consent for Uppsala samples was provided according to the declaration of Helsinki. Seven CD 19+ selected CLL samples were obtained by positive selection using magnetic beads conjugated to anti-CD19 (MACS, Miltenyi Biotec, Auburn Calif.). The resulting cells are at least 95% CD19 positive. All patients had immunophenotypically defined CLL as outlined by the modified 96 NCI criteria (Cheson et al., 1996) and for Uppsala samples, according to WHO classification. The CLL cell line WaC3CD5, described previously (Wendel-Hansen et al., 1994), Jurkat, Raji and lymphoblastoid cell lines were incubated (37° C. and 5% C02) in RPMI 1640 supplemented with 10% FBS (HyClone Laboratories, Logan, Utah), 2 mM L-glutamine, 100 U/ml penicillin, and 100 μg/ml streptomycin (all from Invitrogen, Carlsbad Calif.). […]
# Semi-quantitative RT-PCR was performed as described previously (Liu et al., 2006). […] The expression data was analyzed by comparative Ct method. […]
# DAPK1 promoter = assay: Bisulfite sequencing of the BS1 region of Decitabine-treated Raji cells; assay type: cell-based; details: Decitabine 0.5 μM, untreated 55%
# Procedure: FIG. 2F—Bisulfite treatment for untreated and 6 and 12 days 5-aza-2′-deoxycytidine treated (0.5 μM) Raji cells. Bisulfite treated DNA was amplified for the BS1 region (c.1-1509 to c.1-1262) comprising 30 CpGs and cloned. Sequencing was done for 7-10 clones for each sample. Each row represents a clone. The open circles indicate unmethylated CpG, and closed circles indicate methylated CpG. The overall methylation frequency is given in (%) on the right.
# One microgram of genomic DNA was treated with sodium […] according to published protocols (Herman et al., 1996). Regions BS1 and BS2 were amplified (primers are available upon request). The PCR product was purified using the Qiagen Gel Extraction kit (Qiagen, Chatsworth, Calif.) according to the manufacturer's protocol and subcloned using the TOPO TA-Cloning kit (Invitrogen) followed by sequencing of 8-10 clones for each sample using ABI big dye technology.
compound,measurement,setting,value
"Nc1ncn([C@H]2C[C@H](O)[C@@H](CO)O2)c(=O)n1 [Decitabine, 5-aza-2′-deoxycytidine]",DAPK1 expression (RT-PCR),DAPK1,gradual up-regulation of DAPK1 expression
same,"DNA methylation of CpG dinucleotides, BS1 region",DAPK1 promoter; day 6 (70/240),29%
same,"DNA methylation of CpG dinucleotides, BS1 region",DAPK1 promoter; day 12 (68/270),25%
